The subject of assay [1] is MV4:11 human cancer cell lines. As to the kind of experiment: Anti-proliferative activity, CellTiter-Glo viability assay, 7 day protocol. It is filed as cell-based. Particulars: Homo sapiens, MV4-11, 168 h, MV4:11 cells, 7 day incubation, read-out: GI50 on cellular proliferation of MV4:11 human cancer cell lines. On the procedure:
Viability assays are performed by dispensing […] into each well of an opaque 384-well plate and adding compounds at the indicated concentrations in a final volume of 32 μL and a final concentration of DMSO of 0.1% for all samples. After a set incubation period, 7 day protocol, the viability of cells in each well is assessed using the CellTiter-Glo assay (Promega), read on a GloMax 96 Microplane Luminometer (Promega). Serial dilutions of each cell type are included in all assays to generate standard curves and determine assay measurements are taken within the dynamic range of the instrument. GI50 values are calculated based on three biological replicates, each with three technical replicates. Data are expressed as mean plus/minus S.E.M.
For orientation: ATP-based viability assays read luminescence as a measure of living cells.

For the next assay, the target named is WDR5 (Homo sapiens (Human), UniProt P61964). Put plainly: TR-FRET binding assay (displacement of 10mer-Thr-FAM probe from WDR5). Particulars: read-out: Ki for Inhibition of WDR5 by TR-FRET assay.
The mark [2] stands for this setting: TR-FRET, 10mer-Thr-FAM probe, WDR5-His tag 2 nM, pH 7.0.

Where two headings read alike, the source gives them in different places.

On to `Cc1cc(F)ccc1-c1cc(Cn2ccn(C)c2=N)cc(C(=O)NCc2ccc(Cl)c(Cl)c2)n1` [Example 5, N-(3,4-dichlorobenzyl)-6-(4-fluoro-2-methylphenyl)-4-((2-imino-3-methyl-2,3-dihydro-1H-imidazol-1-yl)methyl)picolinamide], for which, in assay [1], the GI50 was determined as 240 nM.
Regarding `Cc1cc(-c2cc(Cn3ccn(C)c3=N)cc(C(=O)NCc3ccc(Cl)c(Cl)c3)c2)ccn1` [Example 22, N-(3,4-Dichlorobenzyl)-3-((2-imino-3-methyl-2,3-dihydro-1H-imidazol-1-yl)methyl)-5-(2-methylpyridin-4-yl)benzamide], the GI50 in assay [1] was 14000 nM.
For the compound `COc1cnccc1-c1cc(Cn2ccn(C)c2=N)cc(C(=O)NCc2ccc(Cl)c(Cl)c2)c1` [Example 23, N-(3,4-Dichlorobenzyl)-3-((2-imino-3-methyl-2,3-dihydro-1H-imidazol-1-yl)methyl)-5-(3-methoxypyridin-4-yl)benzamide], the GI50 in assay [1] worked out at 6200 nM.
For `Cn1nccc1-c1cc(Cn2ccn(C)c2=N)cc(C(=O)NCc2ccc(Cl)c(Cl)c2)c1` [Example 26, N-(3,4-Dichlorobenzyl)-3-((2-imino-3-methyl-2,3-dihydro-1H-imidazol-1-yl)methyl)-5-(1-methyl-1H-pyrazol-5-yl)benzamide], the GI50 in assay [1] is 790 nM.
Consider `Cc1cc([C@@H](C)NC(=O)c2cc(Cn3ccn(C)c3=N)cc(-c3ccc(F)cc3C)c2)ccc1F` [Example 29, (R)-4′-Fluoro-N-(1-(4-fluoro-3-methylphenyl)ethyl)-5-((2-imino-3-methyl-2,3-dihydro-imidazol-1-yl)methyl)-2′-methyl-[1,1′-biphenyl]-3-carboxamide], for which, in assay [1], the GI50 was determined as 780 nM.
With `Cc1cc([C@H](C)NC(=O)c2cc(Cn3ccn(C)c3=N)cc(-c3ccc(F)cc3C)c2)ccc1F` [Example 30, (S)-4′-Fluoro-N-(1-(4-fluoro-3-methylphenyl)ethyl)-5-((2-imino-3-methyl-2,3-dihydro-1H-imidazol-1-yl)methyl)-2′-methyl-[1,1′-biphenyl]-3-carboxamide], the GI50 in assay [1] was found to be 100 nM.
By Ki is commonly meant the dissociation constant of the complex between target and ligand, obtained from inhibition or displacement. Take `CC(C)n1cc(-c2cc(CN3CCSC3=N)cc(C(=O)N[C@H](c3ccc(F)c(F)c3)C3CC3)c2)c(C(F)(F)F)n1` [Example 319, (S)—N-(Cyclopropyl(3,4-difluorophenyl)methyl)-3-((2-iminothiazolidin-3-yl)methyl)-5-(1-isopropyl-3-(trifluoromethyl)-1H-pyrazol-4-yl)benzamide]: the inhibition constant Ki on WDR5 (setting [2]) turned out to be 0.32 nM.
Turning to `CCn1cc(-c2cc(CN3CCSC3=N)cc(C(=O)NCc3ccc(=O)n(C)c3)c2)c(C(F)(F)F)n1` [Example 323, 3-(1-Ethyl-3-(trifluoromethyl)-1H-pyrazol-4-yl)-5-((2-iminothiazolidin-3-yl)methyl)-N-((1-methyl-6-oxo-1,6-dihydropyridin-3-yl)methyl)benzamide], the Ki on WDR5 came out at 1.8 nM.
Consider `Cc1cc([C@@H](NC(=O)c2cc(CN3CCSC3=N)cc(-c3cn(C)nc3C(F)(F)F)c2)C2CC2)ncc1F` [Example 326, (S)—N-(Cyclopropyl(5-fluoro-4-methylpyridin-2-yl)methyl)-3-((2-iminothiazolidin-3-yl)methyl)-5-(1-methyl-3-(trifluoromethyl)-1H-pyrazol-4-yl)benzamide], for which the Ki on WDR5 was under 0.1 nM.
As for `Cc1cc([C@@H](NC(=O)c2cc(Cn3cccc(F)c3=N)cc(-c3cc(C(F)(F)F)nn3C)c2)C2CC2)ccc1F` [Example 345, (S)—N-(Cyclopropyl (4-fluoro-3-methylphenyl)methyl)-3-((3-fluoro-2-iminopyridin-1(2H)-yl)methyl)-5-(1-methyl-3-(trifluoromethyl)-1H-pyrazol-5-yl)benzamide], at WDR5, the inhibition constant (Ki) amounted to 2.4 nM.
On to `Cc1cc([C@@H](NC(=O)c2cc(Cn3ccccc3=N)cc(-c3cc(C(F)(F)F)nn3C)c2)C2CC2)ccc1F` [Example 346, (S)—N-(Cyclopropyl(4-fluoro-3-methylphenyl)methyl)-3-((2-iminopyridin-(2H)-yl)methyl)-5-(1-methyl-3-(trifluoromethyl)-1H-pyrazol-5-yl)benzamide], for which the Ki on WDR5 (setting [2]) is 1.6 nM.
Turning to `Cc1cc([C@@H](NC(=O)c2cc(Cn3cc(F)ccc3=N)cc(-c3cn(C)nc3C(F)(F)F)c2)C2CC2)ccc1F` [Example 353, (S)—N-(cyclopropyl(4-fluoro-3-methylphenyl)methyl)-3-((5-fluoro-2-iminopyridin-1(2H)-yl)methyl)-5-(1-methyl-3-(trifluoromethyl)-1H-pyrazol-4-yl)benzamide], the Ki at WDR5 was under 0.1 nM.
In the case of `Cc1cc([C@@H](NC(=O)c2cc(Cn3cc(F)ccc3=N)cc(-c3cccnc3C(F)(F)F)c2)C2CC2)ccc1F` [Example 354, (S)—N-(cyclopropyl(4-fluoro-3-methylphenyl)methyl)-3-((5-fluoro-2-iminopyridin-1(2H)-yl)methyl)-5-(2-(trifluoromethyl)pyridin-3-yl)benzamide], the Ki at WDR5 (setting [2]) is under 0.1 nM.
Still for that read-out and setting: under `Cc1ccnc(C(NC(=O)c2cc(Cn3ccn(C)c3=N)cc(-c3ccc(F)cc3C)n2)C2CC2)c1` (stereo not shown) [Example 356, N-(Cyclopropyl(4-methylpyridin-2-yl)methyl)-6-(4-fluoro-2-methylphenyl)-4-((2-imino-3-methyl-2,3-dihydro-1H-imidazol-1-yl)methyl)picolinamide] stands 182 nM; under `COc1ccnc(CNC(=O)c2cc(Cn3ccn(C)c3=N)cc(-c3ccc(F)cc3C)n2)c1` [Example 357, 6-(4-Fluoro-2-methylphenyl)-4-((2-imino-3-methyl-2,3-dihydro-1H-imidazol-1-yl)methyl)-N-((4-methoxypyridin-2-yl)methyl)picolinamide], 1.3 nM.
For `Cc1cc(F)ccc1-c1cc(Cn2ccn(C)c2=N)cc(C(=O)NCc2ccc(Cl)c(F)c2)n1` [Example 359, N-(4-Chloro-3-fluorobenzyl)-6-(4-fluoro-2-methylphenyl)-4-((2-imino-3-methyl-2,3-dihydro-1H-imidazol-1-yl)methyl)picolinamide], the inhibitory constant (Ki) at WDR5 (setting [2]) was 8.7 nM.
For the compound `Cc1cc(F)ccc1-c1cc(Cn2ccn(C)c2=N)cc(C(=O)N[C@H](C)c2ccc(F)c(C(F)(F)F)c2)n1` [Example 360, (R)-6-(4-fluoro-2-methylphenyl)-N-(1-(4-fluoro-3-(trifluoromethyl)phenyl)ethyl)-4-((2-imino-3-methyl-2,3-dihydro-1H-imidazol-1-yl)methyl)picolinamide], the Ki at WDR5 (setting [2]) was 1 nM.
With `Cc1cc([C@@H](NC(=O)c2cc(CN3CCCOC3=N)cc(-c3cccnc3C(F)(F)F)c2)C2CC2)ccc1F` [Example 362, (S)—N-(Cyclopropyl(4-fluoro-3-methylphenyl)methyl)-3-((2-imino-1,3-oxazinan-3-yl)methyl)-5-(2-(trifluoromethyl)pyridin-3-yl)benzamide], at WDR5 (setting [2]), the Ki worked out at 0.72 nM.
As to `Cc1cc([C@@H](NC(=O)c2cc(Cn3cnn(C)c3=N)cc(-c3cn(C)nc3C(F)(F)F)c2)C2CC2)ccc1F` [Example 363, (S)—N-(Cyclopropyl(4-fluoro-3-methylphenyl)methyl)-3-((5-imino-1-methyl-1,5-dihydro-4H-1,2,4-triazol-4-yl)methyl)-5-(1-methyl-3-(trifluoromethyl)-H-pyrazol-4-yl)benzamide], the inhibition constant Ki on WDR5 (setting [2]) was under 0.1 nM.
